From patent US20240400698A1, “ANTI-CHEMOKIN LIKE RECEPTOR 1 ANTIBODIES AND THEIR THERAPEUTIC APPLICATIONS” (OSE IMMUNOTHERAPEUTICS, priority 2018, published 2024) come the findings set out here.

The subject of one test is Mice dendritic cells. Briefly: Maturation and differentiation of mice bone marrow derived dendritic cells, activation markers and viability by FACS. In kind it is cell-based. On the procedure:
FIG. 1. Effect of the anti-CMKLR1 variants 1G1, 2G1, 3G1 and 4G1 chimeric antibodies on the DCs maturation and differentiation. Mice dendritic cells were incubated during maturation phase (24 h or 48 h) followed by a differentiation phase with excipient or RvE1 or anti-CMKLR1 antibodies variants (mutations on positions 1 and 2 of SEQ ID No. 8, corresponding to the VH-CDR3: 1G1 (LL), 2G1 (LI), 3G1 (IL) or 4G1 (II) or isotype controls (hIgG1 or mIgG)). Cells were then stained for FACS analysis with cell marker antibodies: A. CD80-PE; B. CD86-FITC; C. CD103-PerCPCy5.5; D. I/Ab-APC. Mean of Fluorescence was determined in each condition. E and F represent the viability of the cells measured by FACS using LIVE/DEAD® kit from Life Technologies in each condition after 24 or 48 hours of maturation respectively.
FIG. 17. Study of the myeloid cell activation markers after CMKLR1 pathway activation. Dendritic cells incubated in excipient, RvE1, 2G1 or isotype control (hIgG1) were then stained for FACS analysis with marker antibodies: A. CD80-PE. B. CD86-FITC. C. CD103-PerCPCy5.5. D. CD40-PeCy7. E. I/Ab-APC. Mean of Fluorescence was determined in each condition.
Bone marrow cells were harvested and cultured in RPMI medium supplemented with 10% FBS, glutamine and antibiotics and the dendritic cell differentiation was induced by GM-CSF at 20 ng/ml for 7 days. Then, immature dendritic cells (iDC) were collected and cultured for 24 hours with LPS (100 ng/ml) to induce the maturation from iDC to mDC. Treatments were added during differentiation and maturation at 2 μg/ml.
Dendritic cells were resuspended in PBS-FBS-EDTA and incubated with live and dead (LIVE/DEAD® Fixable Dead Cell Stains Yellow-Life Technologies) for 30 minutes on ice. Staining of CD11c-BV711, CD11b-APCCy7, I/Ab-APC, CD103-PerCPCy5.5, CCR7-V450, CD40-PeCy7, CD80-PE, CD86-FITC (all provided by BD Pharmingen) were performed.

In test [1] the test system is C57BI/6 male mice, colitis induced by TNBS. Briefly: Acute inflammatory colitis model induced by TNBS. In kind it is in vivo. The conditions noted are these: FIG. 3, 2G1 10 μg, RvE1 1 μg per mouse i.p. On the procedure: FIG. 3. […] Mice received 200 μL of the haptenating agent TNBS at 5% in 50% ethanol on day 0 and then were injected with isotype control hIgG1 (10 μg per mouse) (x), RvE1 (1 μg per mouse) daily (•), or 2G1 antibody (10 μg per mouse) three times ( ) for 5 days, or non-treated (wild type animals) (▾). Mice were sacrificed colon length was measured in each condition.
Colitis was induced in 8-10 weeks-old-C57BI/6 male mice by intrarectal injection of 200 μL of the haptenating agent TNBS at 5% in 50% ethanol on day 0. Treatments were injected intra-peritoneally; RvE1 (1 μg per mouse) daily for three days, or 2G1 antibody (10 μg per mouse) twice for 3 days. Colitis follow-up consisting of body weight and stool score (0: normal stool; 4: blood in stool) parameters were performed daily (data not represented). When mice are euthanized, colon length representing the pathology severity was measured.

Test [2] relates to male C57BI/6 mice, Aldara-induced psoriasis. Briefly: Imiquimod (Aldara)-induced psoriasis-like skin inflammation. In kind it is in vivo. As to conditions: 1 μg per mouse i.p. daily, vs control molecule. The protocol:
FIG. 6. Effect of Resolvin E1 on an autoimmune disease such as mice psoriasis model. Aldara treated mice for 6 consecutive days were injected intra-peritoneally with: RvE1 (1 μg) (•) and PBS daily, and isotype control antibody (10 μg) (x) at day 0, 2 and 4. A. Ear thicknesses and B. skin thicknesses were measured daily until the recovery.
Aldara@ cream which is known to induce psoriasis in mice was used on male C57BI/6 mice (8-10-week old). Mice received a daily topical dose of Aldara on the shaved back and the left ear for 6 consecutive days. Treatments were injected intra-peritoneally: RvE1 (1 μg per mouse) and PBS daily. Ear (FIG. 6A) and back (FIG. 6B) thicknesses were measured daily until the recovery.

The test system of test [3] is mice, peritonitis induced by Zymosan A. The test is described as follows: Zymosan A peritonitis model (sepsis). In kind it is in vivo. As to conditions: preventive injection, vs isotype control. On the procedure:
FIG. 7. […] Preventive injection of anti-CMKLR1 was performed before Zymosan A injection (1 mg per mouse in 1 mL): RvE1 (1 μg per mouse) (•), 2G1 antibody (10 μg per mouse) ( ) or isotype control antibody (x). A. PMN numbered during the first 50 hours after Zymosan A injection. B. Macrophages numbered during the first 50 hours after Zymosan A injection. C. Resolution index.
Common peritonitis is induced by intraperitoneal injection of Zymosan A® (1 mg per mouse in 1 mL). Preventive injection of anti-CMKLR1 was performed 5 minutes before Zymosan A injection: RvE1 (1 μg per mouse), 2G1 antibody (10 μg per mouse). Murine peritoneal polymorphonuclear neutrophil (PMN) and macrophages were collected at 2-4-8-16-24 and 48 h after Zymosan A injection and numbered by flow cytometry analysis to determinate the resolution index (Bannenberg et al., 2005).

The test system of test [4] is mice M1 or M2 macrophages. The test is described as follows: Cytokine secretion by mice M1 or M2 macrophages (ELISA), FIG. 15. In kind it is cell-based. As to conditions: FIG. 15; IL10, CCL17, IL12p40. On the procedure: FIG. 15. Study of the inflammatory cytokine secretion by human macrophages during CMKLR1 activation. After differentiation of human macrophages M1 or M2, cells were incubated in presence of medium, isotype control, anti-CMKLR1 antibodies (H6 and BZ194), C15 peptides, 2G1 anti-CMKLR1 antibody or RvE1. Secretion of IL10, CCL17 and IL12p40 were assessed by ELISA. Cytokines secretion is measured in the supernatant by using an ELISA kit from BD. Supernatant were diluted at 1/10 for IL10 cytokines, 1/50 for CCL17 cytokines and 1/100 for IL12p40 cytokines. A. IL10 cytokine secretion by M2 cells. B. CCL17 cytokine secretion by M2 cells. C. represents IL 12 cytokine secretion by M1 cells.
Bone marrow cells were harvested and cultured in the RPMI medium supplemented with 10% FBS, glutamine and antibiotics containing macrophages colony-stimulating factor (M-CSF) at 100 ng/ml for 5 days inducing the macrophages differentiation. The macrophages were harvested and cultured for 2 days with either IFNg (20 ng/ml) and LPS (100 ng/ml) inducing the M1 polarization or with IL-4 (20 ng/ml) inducing the M2 polarization. Treatments were added during macrophage polarization at 2 μg/ml.
After differentiation of mice M1 or M2 as explain above, cells were incubated in presence of medium, isotype control, anti-CMKLR1 antibodies: clones H6 and BZ194, C15 peptides, 2G1 the anti-CMKLR1 antibody of interest or RvE1 were used. Then the secretion of IL10, CCL17 and IL12p40 was assessed by ELISA. Cytokines secretion was measured in the supernatant using an ELISA kit from BD. Supernatants were diluted at 1/10 for IL10 cytokines, 1/50 for CCL17 cytokines and 1/100 for IL12p40 cytokines.
Cytokines secretion was detected by ELISA according to the BD manufacturer instructions. Briefly, supernatants were diluted in the appropriate buffer and incubated for 2 hours after overnight coating with capture antibody and saturation. […] TMB supplied by BD Bioscience was used as substrate and colorimetric reaction was read with TECAN.

Regarding `CC[C@@H](O)/C=C/C=C\C[C@@H](O)/C=C/C=C/C=C\[C@@H](O)CCCC(=O)O` [RvE1, Resolvin E1, reference compound], the “expression of CD80, CD86, CD103, CD40 and IAb (DC activation markers)” value in the test on Mice dendritic cells (FIG. 17, FACS, compared to the excipient or isotype control) was “strong decrease”. The colon length entry in test [1] is on record as “the same as normal animal (wt)”. For the same molecule, the “thickness of the ears” value in test [2] (FIG. 6A) is given as “lower thickness”. The “thickness of the skin (back)” value in test [2] (FIG. 6B) is listed as “lower thickness”. In addition, the PMNs number result in test [3] (FIG. 7A) is recorded as “slightly less”. Further, in test [3] (FIG. 7B), the macrophages number result was “slightly less”. Also, the resolution index entry in test [3] (FIG. 7C) was “better resolution index”. The “inflammatory cytokines secreted by M1 or M2 macrophages, result compared with that of 2G1” value in test [4] is recorded as “different”.

B1: 1G1: anti-CMKLR1 chimeric antibody variant, LL on positions 1 and 2 of VH-CDR3 (SEQ ID No. 8) (antibody, V domains shown)
VH: EVQLVASGGGLVQPGGSLKLSCAASGFTFSSYGMSWVRQTPDRRLELVATINRYGGSTYYPDSVKGRFTISRDNAKNTLYLQMSSLKSEDTAMYYCPRLLYYGNEGDSWGQGTTLTVSS
VL: QIVLTQSPAIMSASPGEKVTMTCSASSSVSFMHWYQQKSGTSPKRWIYDTTKLTSGVPARFSGSGSGTFYSLTISSMEAEDAATYYCQQWNSKPPLTFGPGTKLELKR
For the molecule B1, the “DCs activation and/or maturation towards a pro-inflammatory pathway” value in the test on Mice dendritic cells (FIG. 1, mice dendritic cells, maturation 24 h or 48 h) was “inhibit DCs activation and/or maturation in a stronger manner than other synthetized antibodies (3G1 and 4G1)”. Moreover, the viability of cells entry in the test with Mice dendritic cells (FIGS. 1E and 1F, LIVE/DEAD kit, after 24 or 48 hours of maturation, compared with other antibodies, C7 or Resolvin E1) is reported as “enhanced”.
